Assay results from publication PMC9266914, “Broad Spectrum Functional Activity of Structurally Related Monoanionic Au(III) Bis(Dithiolene) Complexes” (International Journal of Molecular Sciences, 2022).
Where two headings read alike, the source gives them in different places. Marks after values point to notes of the source that are not given here.

Experiments:
E. coli ATCC25922 = assay: MIC determination, E. coli; type: cell-based, Escherichia coli; details: MH broth, 22 h, 37 °C
Excerpt: (§1) The bacterial strains Escherichia coli ATCC25922 and Staphylococcus aureus Newman were used in this work and maintained in Lennox Broth (LB) solid medium, composed of 10 g/L tryptone, 5 g/L yeast extract, 5 g/L NaCl and 20 g/L agar. The fungal strains Candida albicans SC5134 and C. glabrata CBS138 were used in this work and maintained in YPD solid medium, composed of 20 g/L glucose, 20 g/L peptone, 10 g/L yeast extract and 15 g/L agar. The strains were isolated from human infections.
(§2) The antimicrobial activity of the complexes towards the bacterial and fungal strains was assessed by the determination of the Minimal Inhibitory Concentration (MIC) of each complex towards the indicated microbial strains, based on standard methods, and as previously described. […] Serial 1:2 dilutions of stock solutions were prepared for each complex in Mueller–Hinton (MH) broth (Fluka Analytical) or RPMI-1640 medium (Sigma) supplemented with 20 g/L glucose and buffered with 0.165 M morpholinepropanesulphonic acid (RPMIG) to pH 7.0. Solutions prepared with MH were used for testing bacteria, while those prepared with RPMIG were used for testing fungi. For antibacterial activity assays, the final concentrations ranged from 250 to 0.24 μg/mL (when stock solution final concentration was 10 mg/mL), 125 μg/mL to 0.12 μg/mL (when stock solution final concentration was 5 mg/mL) and 62.5 to 0.06 μg/mL (when stock solution final concentration was 2.5 mg/mL). For antifungal assays, the final concentrations ranged from 125 μg/mL to 0.12 μg/mL (when stock solution final concentration was 10 mg/mL), 62.5 to 0.06 μg/mL (when stock solution final concentration was 5 mg/mL) and 31.25 to 0.03 μg/mL (when stock solution final concentration was 2.5 mg/mL). Then, 100 μL aliquots of adequately diluted bacterial suspensions of S. aureus Newman or E. coli ATCC 25922 were mixed with the MH serially diluted complexes aliquots to obtain 5 × 10^5 CFU/mL. In the case of fungi, cultures were diluted to obtain a final optical density of 0.025, measured at 530 nm (OD530). Bacterial suspensions were prepared from cultures grown for 5 h in MH broth at 37 °C and 250 rev·min^−1 and adequately diluted with fresh MH medium, while fungal suspensions were prepared from overnight cultures grown in YPD broth at 30 °C and 250 rev.min^−1 and diluted in buffered RPMIG. After 22 h of incubation at 37 °C (bacteria) or 24 h at 35 °C (fungi), the wells’ content was resuspended by pipetting and the OD640 (bacteria) or OD530 (fungi) were measured in a SPECTROstar Nano microplate reader (BMG Labtech).
(§3) At least three independent experiments were performed in duplicate for each complex under study. […] Positive (no complex) and negative controls (no inoculum) were performed for each experiment. The effect of 5% (V/V) DMSO on microbial growth was also assessed.

S. aureus Newman = assay: MIC determination, S. aureus; type: cell-based, Staphylococcus aureus; details: MH broth, 22 h, 37 °C
Excerpt: as §1, §2, §3

[1] = test system: OVCAR8 ovarian cancer cells; assay: MTT cytotoxicity assay in OVCAR8 (cisplatin resistant) ovarian cancer cells; type: cell-based, human; details: 48 h incubation
Experimental: (§4) Cells were exposed to increasing concentrations of the complexes (0.01–100 μM) for 24 and/or 48 h, at 37 °C. The IC50 values were calculated from dose–response curves using the colorimetric MTT assay. […] Most complexes presented a similar cytotoxicity profile compared to Auranofin, but higher activity compared to Cisplatin, and, most importantly, were active in the Cisplatin-resistant OVCAR8 cells (Table 2).
(§5) The cytotoxic activity of the complexes was evaluated in the A2780 (cisplatin sensitive) (Sigma-Aldrich) and OVCAR8 (cisplatin resistant) (ATCC) ovarian cancer cells. Cells were grown in RPMI-1640 medium (Gibco, Thermo Fisher) supplemented with 10% fetal bovine serum (FBS) and were maintained at 37 °C in a humidified atmosphere with 5% CO2. The complexes were initially dissolved in DMSO and then in culture medium to prepare serial dilutions in the range 10^−9–10^−4 M. After 24 and/or 48 h incubation the cellular viability was measured by the colorimetric MTT assay, as previously described.

C. glabrata CBS138 = assay: MIC determination, C. glabrata; type: cell-based, Candida glabrata; details: RPMIG, 24 h, 35 °C
Excerpt: as §1, §2, §3

C. albicans SC5134 = assay: MIC determination, C. albicans; type: cell-based, Candida albicans; details: RPMIG, 24 h, 35 °C
Excerpt: as §1, §2, §3

[2] = test system: A2780 ovarian cancer cells; assay: MTT cytotoxicity assay in A2780 (cisplatin sensitive) ovarian cancer cells; type: cell-based, human
Experimental: as §4, §5

Cyclic voltammetry = type: physicochemical; details: for E1/2 −1/0, first value of cell (anodic peak) / E −2/−1 (reduction of monoanion into dianion) / E1/2 −1/0, second value of cell (cathodic peak) / Epa2 0/+1 / Epc2 0/+1: CH2Cl2, NBu4PF6, Pt, 100 mV.s^−1; for potential difference between the second and the first oxidation potentials: CH2Cl2, NBu4PF6
Excerpt: The redox properties of the various gold(III) bis(dithiolene) and bis(diselenolene) complexes were investigated by cyclic voltammetry using the same conditions, dichloromethane solutions and NBu4PF6 as supporting electrolyte. Under these conditions, the nature of the counter-ion, Ph4P^+ or Et4N^+, had no influence on the redox properties observed, due to ion exchange with the Bu4N^+ of the supporting electrolyte. Thus, only the result of one monoanion is included in Table 1, even if the two salts were analyzed. For all the investigated monoanionic bis(dithiolene) complexes, three redox processes are observed on the cyclic voltammograms. On the anodic scan, the two oxidation waves correspond to the oxidation of the monoanionic species into the neutral and to the monocationic complex. Most of these complexes had the tendency to deposit on the electrode once oxidized and frequently a strong desorption peak was observed on the reversible scan. This phenomenon occurs essentially for the complex with an exocyclic sulfur atom, [AuSR(=S)]^−1. On the cathodic scan, an irreversible process associated with the reduction in the monoanion into the dianion occurs (Scheme 2). […] The presence of oxygen instead of sulfur makes the oxidation of the monoanionic into the neutral species easier. On the other hand, the presence of electron-withdrawing substituents such as =C(CN)2 induces an anodic shift of the oxidation potentials by 300 mV, compared with the =O derivative, leading to a monoanion which is more difficult to oxidize than the other complexes of the series. […] Indeed, the potential difference between the second and the first oxidation potentials amounts to 470 mV and 410 mV for the =O and the =C(CN)2 derivatives, respectively, while for the =S analogues this value is smaller (170 mV). […] For comparison, we also investigated the redox behavior of Auranofin using the same experimental conditions in CH2Cl2 in the presence of NBu4PF6 as a supporting electrolyte. Using these conditions, upon anodic scan only one irreversible oxidation process is observed at 1.42 V vs. SCE. Therefore, all these monoanionic gold bis(dithiolene) and bis(diselenolene) complexes are easier to oxidize than Auranofin.
All reagents and materials from commercial sources were used without further purification. NMR spectra were recorded at room temperature using CDCl3 unless otherwise stated (Figures S7–S15). Chemical shifts are reported in ppm and ^1H NMR spectra were referenced to residual CHCl3 (7.26 ppm) and ^13C NMR spectra were referenced to CHCl3 (77.2 ppm). Mass spectra were recorded with an Agilent 6510 instrument for organics compounds and with a Thermo-Fisher Q-Exactive instrument for complexes by the Center Régional de Mesures Physiques de l’Ouest, Rennes. Cyclic voltammograms (CV)s were carried out on a 10^−3 M solution of complex in CH2Cl2-[NBu4] [PF6] 0.1 M. CVs were recorded on a Biologic SP-50 instruments at 0.1 Vs^−1 on a platinum disk electrode. Potentials were measured versus KCl Saturated Calomel Electrode (SCE). Column chromatography was performed using silica gel Merck 60 (70–260 mesh). The solvents were purified and dried by standard methods. The proligand 2-SEt(=C(CN2)), [72] and complexes [N][AuSMe(=S)], [73] [N][AuSEt(=S)], [74] [P][AuSEt(=O)], [75] [N][AuSeEt(=S)] [75] and [P][AuSPr(=S)] [76] were synthesized according to the previously reported procedure.

[3] = 24 h incubation, read-out: IC50 A2780, 24 h
[4] = 48 h incubation, read-out: IC50 A2780, 48 h

| Structure (SMILES) | E1/2 −1/0, first value of cell (anodic peak) (Cyclic voltammetry) | E −2/−1 (reduction of monoanion into dianion) (Cyclic voltammetry) | E1/2 −1/0, second value of cell (cathodic peak) (Cyclic voltammetry) [V vs. SCE] | Epa2 0/+1 (Cyclic voltammetry) | Epc2 0/+1 (Cyclic voltammetry) [V vs. SCE] | other results |
| --- | --- | --- | --- | --- | --- | --- |
| CCCn1c2c(sc1=S)[S][Au-]1([S]c3sc(=S)n(CCC)c3[S]1)[S]2.CC[N+](CC)(CC)CC [[N][AuSPr(=S)]] |  |  |  |  |  | MIC E. coli ATCC25922 (E. coli ATCC25922): >250 µg/mL; MIC S. aureus Newman (S. aureus Newman): 1.1 ± 0.2 µg/mL; IC50 [1]: 2.28 ± 0.19 µM; MIC C. glabrata CBS138 (C. glabrata CBS138): 1.6 ± 0.8 µg/mL; MIC C. albicans SC5134 (C. albicans SC5134): 3.1 µg/mL; MIC C. albicans SC5134 (C. albicans SC5134; listed as [ N ][AuSPr(=S)]): 3.1 ± 0.5 µg/mL; IC50 [2, 3]: 2.93 ± 0.81 µM; IC50 [2, 4]: 2.28 ± 0.69 µM |
| CCCn1c2c(sc1=[Se])[S][Au-]1([S]c3sc(=[Se])n(CCC)c3[S]1)[S]2 [[AuSPr(=Se)]^−1] | 0.45/− ** V vs. SCE | −0.84 ** V vs. SCE |  |  |  |  |
| CCCn1c2c(sc1=S)[S][Au-]1([S]c3sc(=S)n(CCC)c3[S]1)[S]2 [[AuSPr(=S)]^−1] | 0.56 V vs. SCE | −0.85 ** V vs. SCE | 0.53 | 0.73 V vs. SCE | 0.64 |  |
| CC(C)n1c2c(sc1=S)[Se][Au-]1([Se]c3sc(=S)n(C(C)C)c3[Se]1)[Se]2 [[AuSeiPr(=S)]^−1] | 0.62 V vs. SCE | −0.94 V vs. SCE | 0.57 | 0.75/− V vs. SCE |  |  |
| CCn1c2c(sc1=O)[S][Au-]1([S]c3sc(=O)n(CC)c3[S]1)[S]2 [[AuSEt(=O)]^−1] | 0.42 V vs. SCE | −1.05 ** V vs. SCE | 0.36 | 0.89 V vs. SCE | 0.83 | potential difference between the second and the first oxidation potentials (Cyclic voltammetry): 470 mV |
| Cn1c2c(sc1=S)[S][Au-]1([S]c3sc(=S)n(C)c3[S]1)[S]2 [[AuSMe(=S)]^−1] | 0.51 V vs. SCE | −0.85 V vs. SCE | 0.44 | 0.73 V vs. SCE | 0.56 |  |
| CCn1c2c(sc1=[Se])[Se][Au-]1([Se]c3sc(=[Se])n(CC)c3[Se]1)[Se]2 [[AuSeEt(=Se)]^−1] | 0.43/− ** V vs. SCE | −0.84 ** V vs. SCE |  |  |  |  |
| CCn1c2c(sc1=S)[S][Au-]1([S]c3sc(=S)n(CC)c3[S]1)[S]2 [[AuSEt(=S)]^−1] | 0.55 V vs. SCE | −0.90 V vs. SCE | 0.49 | 0.71 V vs. SCE | 0.61 |  |
| CCN1C(=C(C#N)C#N)SC2=C1[S][Au-]1([S]2)[S]C2=C([S]1)N(CC)C(=C(C#N)C#N)S2 [[AuSEt(=C(CN)2)]^−1] | 0.71 V vs. SCE |  | 0.66 | 1.13 V vs. SCE | 1.06 | potential difference between the second and the first oxidation potentials (Cyclic voltammetry): 410 mV |
| CCn1c2c(sc1=[Se])[S][Au-]1([S]c3sc(=[Se])n(CC)c3[S]1)[S]2 [[AuSEt(=Se)]^−1] | 0.40/− ** V vs. SCE | −0.80 ** V vs. SCE |  |  |  |  |
| CC[N+](CC)(CC)CC.CCn1c2c(sc1=[Se])[Se][Au-]1([Se]c3sc(=[Se])n(CC)c3[Se]1)[Se]2 [[N][AuSeEt(=Se)]] |  |  |  |  |  | MIC E. coli ATCC25922 (E. coli ATCC25922): >62.5 µg/mL; MIC S. aureus Newman (S. aureus Newman): >62.5 µg/mL; IC50 [1]: 13.9 ± 1.61 µM; MIC C. glabrata CBS138 (C. glabrata CBS138): 1.8 ± 0.5 µg/mL; MIC C. albicans SC5134 (C. albicans SC5134): >31.25 µg/mL; IC50 [2, 3]: 26.9 ± 3.02 µM; IC50 [2, 4]: 4.84 ± 1.6 µM |
| CCCCn1c2c(sc1=S)[S][Au-]1([S]c3sc(=S)n(CCCC)c3[S]1)[S]2 [[AuSBu(=S)]^−1] | 0.55 V vs. SCE | −0.88 ** V vs. SCE | 0.50 | 0.75 V vs. SCE | 0.66 |  |
| CCCn1c2c(sc1=S)[Se][Au-]1([Se]c3sc(=S)n(CCC)c3[Se]1)[Se]2 [[AuSePr(=S)]^−1] | 0.54/− ** V vs. SCE | −0.90 V vs. SCE |  | 0.95/− V vs. SCE |  |  |
| CC[N+](CC)(CC)CC.CCn1c2c(sc1=S)[Se][Au-]1([Se]c3sc(=S)n(CC)c3[Se]1)[Se]2 [[N][AuSeEt(=S)]] |  |  |  |  |  | MIC E. coli ATCC25922 (E. coli ATCC25922): >125 µg/mL; MIC S. aureus Newman (S. aureus Newman): 5.5 ± 0.3 µg/mL; IC50 [1]: 29.4 ± 4.2 µM; MIC C. glabrata CBS138 (C. glabrata CBS138): 1.6 ± 0.8 µg/mL; MIC C. albicans SC5134 (C. albicans SC5134): >62.5 µg/mL; IC50 [2, 3]: 19.2 ± 2.01 µM; IC50 [2, 4]: 4.32 ± 1.17 µM |
| CCn1c2c(sc1=S)[Se][Au-]1([Se]c3sc(=S)n(CC)c3[Se]1)[Se]2 [[AuSeEt(=S)]^−1] | 0.52/− ** V vs. SCE | −0.89 ** V vs. SCE |  |  |  |  |
